According to patent EP0508425A1, “Bicyclic amides as inhibitors of acyl-coenzyme a: cholesterol acyl transferase” (SCHERING CORPORATION, priority 1991, dated 1992):

Columns and labels:
[1] = tested on: Hyperlipidemic Hamster; assay: In Vivo Assay of Hypolipidemic Agents Using the Hyperlipidemic Hamster; design: species or system Hamsters; conditions: oral gavage once daily, seven days, versus control
Description: In Vivo Assay of Hypolipidemic Agents Using the Hyperlipidemic Hamster
Hamsters are separated into groups of six and given a control cholesterol diet (Purina Chow #5001 containing 0.5% cholesterol) for seven days. Diet consumption is monitored to determine dietary cholesterol exposure in the face of test compounds. The animals are dosed with the test compound once daily beginning with the initiaton of diet. Dosing is by oral gavage of 0.2 mL of corn oil alone (control group) or solution (or suspension) of test compound in corn oil. All animals moribund or in poor physical condition are euthanized. After seven days, the animals are anesthetized by IM injection of ketamine and sacrificed by decapitation. Blood is collected into vacutainer tubes containing EDTA for plasma lipid analysis and the liver excised for tissue lipid analysis. Data is reported as percent reduction of lipid versus control.

[2] = tested on: ACAT; assay: ACAT Assay (in vitro); assay type: biochemical; conditions: 10 µM test compound; rat liver microsomes
Description: This assay measures the activity of ACAT by measuring the ACAT-mediated transfer of tritiated oleic acid from acyl-CoA to cholesterol to give labelled cholesterol oleate. Rat liver microsomes are used as the source of ACAT. Assays are performed in round bottom microtiterplates using a total incubation volume of 50 µL. Each incubation well receives 10 µl assay buffer (0.5M KHPO₄, 10 µM dithiothreitol, pH 7.4), 7.5 µL of 40 mg/mL BSA (Bovine Serum Albumin) and 12.5 µg of microsomal protein. The test compound (in sufficient amount to bring the final concentration to from 0.1 to 25 µM), reference compound, or vehicle control is added and the final volume brought to 47 µL. The microtiterplate is then floated on the surface of a 37°C water bath for fifteen minutes. Incubations are started by the addition of 3 µL ³H-acyl CoA (1µCi/well, final concentration of 10 µM acyl CoA). The plate is then returned to the water bath for 15 minutes. The incubations are then terminated by application of 15 µL from each incubation to individual lanes on a thin layer plate (Silica Gel GF 20 x 20 cm). Standards are applied to several lanes so that the cholesterol ester band can be identified. After drying, the plates are eluted with 90:10:1 petroleum ether:ether:HOAc. The standards are visualized via iodine vapor, and the regions corresponding to cholesterol ester are scraped into 7 mL scintillation vials. 4 mL of scintillant are added to each vial, and the radioactivity quantified. Background count is determined by the boiled controls. Full activity is determined by activity in the presence of vehicle. The percent inhibition is calculated by subtracting the background from both control and test samples, and the test value is calculated as a percentage of the control. For IC₅₀ determinations, the inhibition is plotted against drug doses on a log scale and the concentration at which 50% inhibition is obtained is determined.

Compound: COc1ccc([C@@H]2CCc3ccccc3[C@H]2NC(=O)N(c2ccccc2)c2ccccc2)cc1 (relative stereo) [Example 6, trans-N'-[2-(4'-methoxyphenyl)-1,2,3,4-tetrahydronaphthalen-1-yl]-N,N-diphenylurea]
- % Reduction in cholesteryl esters (dose in mpk) ([1]; dose 50 mpk): -16 (50) %
- ACAT % Inhibition dose = 10 µM [2]: 97%

Compound: O=C(N[C@@H]1c2ccccc2C[C@@H]1c1cc(Cl)c(O)c(Cl)c1)C(c1ccccc1)c1ccccc1 (relative stereo) [Example 8A, cis-N-[2-(3',5'-dichloro-4'-hydroxyphenyl)indanyl]-α-phenylbenzeneacetamide]
- % Reduction in cholesteryl esters (dose in mpk) ([1]; dose 50 mpk): -14 (50) %
- ACAT % Inhibition dose = 10 µM [2]: 99%

Compound: Cc1cc([C@H]2Cc3ccccc3[C@H]2NC(=O)C(c2ccccc2)c2ccccc2)ccc1O (relative stereo) [Example 9, (+)-cis-N-[2-[4'-hydroxy-3'-methylphenyl)indanyl]-α-phenylbenzeneacetamide]
- % Reduction in cholesteryl esters (dose in mpk) ([1]; dose 50 mpk): -66 (50) %
- ACAT % Inhibition dose = 10 µM [2]: 98%

Compound: COc1ccc([C@H]2Cc3ccccc3[C@H]2NC(=O)C(c2ccccc2)c2ccccc2)cc1 (relative stereo) [Example 2, cis-N-[2-(4'-methoxyphenyl)indanyl]-α-phenylbenzeneacetamide]
- % Reduction in cholesteryl esters (dose in mpk) ([1]; dose 50 mpk): -17 (50) %
- ACAT % Inhibition dose = 10 µM [2]: 96%

Compound: O=C(N[C@@H]1c2ccccc2C[C@@H]1c1ccc(O)c(Br)c1)C(c1ccccc1)c1ccccc1 (relative stereo) [Example 7, (+)-cis-N-[2-(3'-bromo-4'-hydroxyphenyl)indanyl]-α-phenylbenzeneacetamide]
- % Reduction in cholesteryl esters (dose in mpk) ([1]; dose 50 mpk): -40 (50) %
- ACAT % Inhibition dose = 10 µM [2]: 100%

Compound: O=C(N[C@@H]1c2ccccc2C[C@@H]1c1ccc(O)c(Cl)c1)C(c1ccccc1)c1ccccc1 (relative stereo) [Example 8, cis-N-[2-(3'-chloro-4'-hydroxyphenyl)-indanyl]-α-phenylbenzeneacetamide]
- % Reduction in cholesteryl esters (dose in mpk) ([1]; dose 50 mpk): -40 (50) %
- ACAT % Inhibition dose = 10 µM [2]: 99%

Compound: Nc1ccc([C@@H]2Cc3ccccc3[C@H]2NC(=O)C(c2ccccc2)c2ccccc2)cc1 (relative stereo) [Example 5, trans-N-[2-(4'-aminophenyl)indanyl]-α-phenylbenzeneacetamide]
- ACAT % Inhibition dose = 10 µM [2]: 94%

Compound: COc1ccc([C@H]2CCc3ccccc3[C@H]2NC(=O)C(c2ccccc2)c2ccccc2)cc1 (relative stereo) [Example 1, cis-N-[-2-(4'-methoxyphenyl)-1,2,3,4-tetrahydronaphthalen-1-yl]-α-phenylbenzeneacetamide]
- % Reduction in cholesteryl esters (dose in mpk) ([1]; dose 50 mpk): 0 (50) %

Compound: O=C(N[C@@H]1c2ccccc2C[C@@H]1c1ccc(O)cc1)C(c1ccccc1)c1ccccc1 (relative stereo) [Example 3, cis-N-[2-(4'-hydroxyphenyl)indanyl]-α-phenylbenzeneacetamide]
- % Reduction in cholesteryl esters (dose in mpk) ([1]; dose 10 mpk): -71%
- % Reduction in cholesteryl esters (dose in mpk) ([1]; dose 25 mpk): -87.5%
- % Reduction in cholesteryl esters (dose in mpk) ([1]; dose 50 mpk): -89%
- ACAT % Inhibition dose = 10 µM [2]: 99%

Compound: CCCCCCCC/C=C\CCCCCCCC(=O)N[C@@H]1c2ccccc2CC[C@H]1c1ccc(O)cc1 (relative stereo) [Example 4, trans-N-[2-(4'-hydroxyphenyl)-1,2,3,4-tetrahydronaphth-1-yl]oleamide]
- % Reduction in cholesteryl esters (dose in mpk) ([1]; dose 50 mpk): 0 (50) %
- ACAT % Inhibition dose = 10 µM [2]: 94%

Compound: Cc1cc([C@H]2Cc3ccccc3[C@H]2NC(=O)C(c2ccccc2)c2ccccc2)cc(C)c1O (relative stereo) [Example 9A, (+)-cis-N-[2-(3',5'-dimethyl-4'-hydroxyphenyl)indanyl]-α-phenylbenzeneacetamide]
- % Reduction in cholesteryl esters (dose in mpk) ([1]; dose 50 mpk): -60 (50) %
- ACAT % Inhibition dose = 10 µM [2]: 97%

Compound: Nc1cccc([C@H]2Cc3ccccc3[C@H]2NC(=O)C(c2ccccc2)c2ccccc2)c1 (relative stereo) [Example 5A, cis-N-[2-(3'-aminophenyl)-indanyl]-α-phenylbenzeneacetamide]
- % Reduction in cholesteryl esters (dose in mpk) ([1]; dose 10 mpk): 0 (10) %
- ACAT % Inhibition dose = 10 µM [2]: 95%
